Test results reported in patent US9345696B2, “Methods for treating nicotinic acetylcholine receptor associated diseases” (priority 2010, dated 2016).

What was measured:
[1] = system: binocular zone of V1 of Lynx1 knockout and wild-type mice; test: Ocular dominance plasticity after short-term monocular deprivation, extracellular recording in vivo (contralateral bias index); set-up: species or system mouse; conditions: for effect on adult ocular dominance plasticity in Lynx1 knockout mice (in words): concurrent with short-term MD
Procedure: (§1) Eyelid margins were trimmed by iris scissor and eyes sutured shut under isoflurane anesthesia. Eyes were closed 4-5 days for short term MD (STMD), from P19 to >P60 for long term MD (CP-LTMD), and from P19 to P33 for recovery studies.
Electrophysiological recording was performed under nembutal/chlorprothixene anesthesia using standard techniques for mice (T. K. Hensch et al., Science 282: 1504 (1998); J. A. Gordon, M. P. Stryker, J Neurosci 16: 3274 (1996). Ocular dominance in the binocular zone of each mouse was calculated as a contralateral bias index (CBI): [(n1−n7)+2/3(n2−n6)+⅓(n3−n5)+N]/2N, where N=total number of cells and nx=number of cells corresponding to ocular dominance score of x (J. A. Gordon, M. P. Stryker, J Neurosci 16, 3274 (1996)). For statistical comparison of OD distributions, normalized OD scores of single neurons were plotted as cumulative distribution for each experimental group. OD score was computed by PSTH analysis of peak to baseline spiking activity in response to each eye: {[Peak(ipsi)−baseline(ipsi)]−[Peak(contra)-baseline(contra)]}/{[Peak(ipsi)-baseline(ipsi)]+[Peak(contra)-baseline(contra)]}(T. Pizzorusso et al., Science, 298: 1248 (2002)).

[2] = system: V1 of wild-type mice; test: Recovery from amblyopia: visual acuity by visual evoked potentials in V1 after long-term MD and eye reopening; type: in vivo, mouse; conditions: WT mice
From the text: as §1

Row | Structure (SMILES) | contralateral bias index (CBI) ([1]; adult Lynx1 KO mice, adult MD, focal infusion into V1 by osmotic minipump) | effect on adult ocular dominance plasticity in Lynx1 knockout mice (in words) ([1]; adult Lynx1 KO mice) | contralateral bias index (CBI) ([1]; adult Lynx1 KO mice, no MD, with mecamylamine) | contralateral bias index (CBI) ([1]; adult Lynx1 KO mice, short-term MD with concurrent nAChR antagonist (systemic i.p. daily or cortical minipump infusion)) | contralateral bias index (CBI) ([1]; adult WT mice, short-term MD with concurrent mecamylamine) | Visual acuity (VEP) ([2]; LTMD P19 to P33, deprived eye reopened, 0.1 mg/kg i.p. daily from P45, recorded >P60) [cyc/deg] | Visual acuity (VEP) ([2]; no MD, with AChEI) [cyc/deg]
1 | CN1C(=O)CN=C(c2ccccc2)c2cc(Cl)ccc21 [Diazepam] | 0.67 | abolished adult plasticity | – | – | – | – | –
2 | CNC1(C)C2CCC(C2)C1(C)C (centres unmarked) [mecamylamine] | – | sufficient to prevent adult plasticity | 0.68 | 0.68 | 0.69 | – | –
3 | CNC(=O)Oc1ccc2c(c1)[C@]1(C)CCN(C)[C@@H]1N2C [physostigmine] | – | – | – | – | – | 0.48±0.06 | 0.47±0.02
